Experiments:
[1] = system: human adipose-derived stem cells; experiment: Confirmation test for migration imparting effect (96-well Boyden chamber, Calcein-AM fluorescence); assay type: cell-based; conditions: 20 hours; for Migration imparting effect, Ratio to blank (%): blank = 100%
Procedure: A medium of human adipose-derived stem cells (manufactured by Kurabo Industries Ltd.; cultured to the 7th passage in STEMLIFE medium [provided by Lifeline Cell Technology]) was replaced with DMEM/F12 medium (manufactured by Life Technologies Corp.), followed by culture for additional 20 hours.
(§1) Meanwhile, a medium in which a sample to be examined for the presence or absence of the migration imparting effect was dissolved at a predetermined concentration was prepared by using 0.1% by volume of fetal bovine serum (nutritional source). Also, DMEM/F12 medium containing 0.1% by volume of fetal bovine serum and not containing the sample (blank) was provided.
Then, the prepared medium was supplied at 200 μL per well to lower wells of a 96-well Boyden chamber (manufactured by Corning Inc., model number: 3384) having a membrane pore size of 8 μm. Also, the human adipose-derived stem cells cultured for 20 hours in the DMEM/F12 medium were inoculated at 30000 cells per well to upper wells of the Boyden chamber and cultured at 37° C. for 20 hours under 5% by volume of CO2.
1.2 μL/mL of Calcein-AM (fluorescent dye, manufactured by Molecular Probes/Thermo Fisher Scientific Inc.) dissolved at 1.66 mg/mL in DMSO (manufactured by Wako Pure Chemical Industries, Ltd.) was added to 10× cell dissociation solution (cell dissolution solution, manufactured by Trevigen Inc.) diluted 10-fold with sterilized water to thereby prepare an index solution for fluorescence emission having the correlation between the number of human adipose-derived stem cells and the strength of fluorescence emission.
The media in the upper and lower wells were taken out of the Boyden chamber and washed with PBS(−) (manufactured by Dojindo Laboratories), and then, the index solution for fluorescence emission was supplied at 100 μL per well to the lower wells and incubated at 37° C. for 1 hour under 5% by volume of CO2 in the dark. Then, the index solution in the lower wells after the incubation was transferred to a 96-well plate (manufactured by Greiner Bio One International GmbH) having black walls and a transparent bottom, and fluorescence intensity (excitation wavelength: 485 nm, detection wavelength: 520 nm) was measured. Each test was conducted in triplicate (n=3).
Specifically, since there is a correlation between the number of human adipose-derived stem cells and the strength of fluorescence emission as mentioned above, the presence or absence of the migration imparting effect was confirmed by determining increase or decrease in the fluorescence intensity of the lower wells by using the fluorescence intensity obtained by the assay of the blank as a reference (100%). As for the determination of the presence or absence of migration, the “migration imparting effect was present” was determined provided that the rate of stem cell migration (rate of increase with respect to the blank) was 5% or more (score + or more) according to the score shown in Table 1 below.
(§2) It is known that the doubling time of the present cells is usually 24 hours or longer, and in the confirmation test for the migration imparting effect, the human adipose-derived stem cells are taken out 20 hours after inoculation and washed, followed by the measurement of the strength of fluorescence emission. Accordingly, in this test, the growth effect of the human adipose-derived stem cells themselves is not included, and only increase in cells by migration is evaluated. On the other hand, in the confirmation test for the growth promoting effect, absorbance 72 hours after inoculation of the human adipose-derived stein cells is measured, and increase in cells by self-growth is simply evaluated.

[2] = system: human adipose-derived stem cells; experiment: Confirmation test for growth promoting effect (WST-8 method, Cell Counting Kit-8); assay type: cell-based; conditions: 72 hours; for Growth promoting effect, Ratio to blank (%): blank = 100%
Procedure: as §1, with “A” for “Meanwhile, a”, “using DMEM/F12 medium (manufactured by Life Technologies Corp.) containing” for “using”, “serum.” for “serum (nutritional source).”, “unsupplemented with” for “and not containing”
Then, human adipose-derived stem cells (manufactured by Kurabo Industries Ltd.; cultured to the 5th passage in STEMLIFE medium [provided by Lifeline Cell Technology]) were inoculated at 3000 cells per well with the prepared medium to a 96-well plate and cultured at 37° C. for 72 hours under 5% by volume of CO2, and then, respiratory activity of the cells was measured as an index for whether or not the cells were activated, by the WST-8 method using Cell Counting Kit-8 (manufactured by Dojindo Laboratories). Specifically, after the human adipose-derived stem cells were cultured for 72 hours, the medium of each well was replaced with DMEM/F12 medium containing Cell Counting Kit-8, which was then incubated at 37° C. for 4 hours under 5% by volume of CO2 in the dark, and then, absorbance at a wavelength of 450 nm (control wavelength: 630 nm) was measured. Each test was conducted in triplicate (n=3).
Specifically, the degree of the respiratory activity (proportional to the number of cells) was measured as the absorbance (wavelength: 450 nm) of the solution by using the WST-8 reagent. Then, the presence or absence of the growth promoting effect was confirmed by determining increase or decrease in the absorbance of the sample-containing prepared medium by using the absorbance obtained by the assay of the blank medium as a reference (100%). As for the determination of the presence or absence of growth promotion, the “stem cell growth promoting effect was present” was determined provided that the rate of stem cell growth (rate of growth with respect to the blank) was 5% or more (score + or more) according to the score shown in Table 2 below.
as §2

[3] = applied concentration 0.001 mg/mL
[4] = applied concentration 0.01 mg/mL
[5] = applied concentration 0.1 mg/mL
[6] = applied concentration 1.0 mg/mL

Substance | Migration imparting effect, Evaluation (score) [1, 3] | Migration imparting effect, Ratio to blank (%) [1, 3] [%] | Migration imparting effect, Evaluation (score) [1, 4] | Migration imparting effect, Ratio to blank (%) [1, 4] [%] | Migration imparting effect, Evaluation (score) [1, 5] | Migration imparting effect, Ratio to blank (%) [1, 5] [%] | Growth promoting effect, Evaluation (score) [2, 4] | Growth promoting effect, Ratio to blank (%) [2, 4] [%] | Growth promoting effect, Evaluation (score) [2, 5] | Growth promoting effect, Ratio to blank (%) [2, 5] [%] | Migration imparting effect, Evaluation (score) [1, 6] | Migration imparting effect, Ratio to blank (%) [1, 6] [%] | Growth promoting effect, Evaluation (score) [2, 6] | Growth promoting effect, Ratio to blank (%) [2, 6] [%]
copper tripeptide-1 | +++ (130 or more and less than 140) | 130 | ++ (120 or more and less than 130) | 125 | +++ (130 or more and less than 140) | 131 | +++ (130 or more and less than 140) | 130 | ++++ (140 or more) | 160 | – | – | – | –
caprooyl tetrapeptide-3 | – | – | + (105 or more and less than 120) | 109 | +++ (130 or more and less than 140) | 133 | ++ (120 or more and less than 130) | 120 | ++ (120 or more and less than 130) | 123 | +++ (130 or more and less than 140) | 132 | + (105 or more and less than 120) | 117

From US20180161262A1, “Cosmetic Method and Dermatological Topical Agent for Use Therein, Migration Imparting Agent, and Method for Screening Components for Use in Cosmetic Method for Improving Skin State” (ROHTO PHARMACEUTICAL CO., LTD., priority 2015, published 2018)
